According to USRE40901E1, “Taxane derivatives and processes for the preparation thereof” (Indena S.p.A., priority 1999, dated 2009):

Legend:
[1] = tested on: cancerous cells of breast, lung, ovary, colon, prostate, kidney, pancreas; assay: cytotoxic and anticancer activity against cancerous cells; type: cell-based; conditions: statement in words, no data
[2] = tested on: cell lines expressing the MDR phenotype; assay: overcoming resistance of MDR cell lines; type: cell-based; conditions: statement in words, no data

CC(=O)O[C@H]1C(=O)[C@@]2(C)C([C@H](OC(=O)c3ccccc3)[C@]34OC(=O)O[C@H]3[C@H](OC(=O)[C@H](O)[C@H](CC(C)C)NC(=O)OC(C)(C)C)C(C)=C1C4(C)C)[C@]1(OC(C)=O)CO[C@@H]1C[C@H]2O (stereo partly drawn) [Compound (I), 13-(N-Boc-β-isobutylserinyl)-14β-hydroxybaccatine V, 1,14 carbonate]
cytotoxic and anticancer activities [1]: remarkable cytotoxic and anticancer activities
overcoming the resistance of cell lines expressing the MDR phenotype [2]: capable of overcoming the resistance
